In ChEMBL document CHEMBL4270637, “Small molecule-induced degradation of the full length and V7 truncated variant forms of human androgen receptor” (Eur J Med Chem, 2018):
Activity calls are given as the source filed them. No cut-off for these calls is given here.

Legend:
[1] = target: T1, Androgen receptor (Homo sapiens) (UniProt P10275); test: Induction of full length AR degradation in human LNCAP cells at 2 to 20 uM after 5 hrs by Western blot analysis; type: cell-based
T1 sequence (whole entry): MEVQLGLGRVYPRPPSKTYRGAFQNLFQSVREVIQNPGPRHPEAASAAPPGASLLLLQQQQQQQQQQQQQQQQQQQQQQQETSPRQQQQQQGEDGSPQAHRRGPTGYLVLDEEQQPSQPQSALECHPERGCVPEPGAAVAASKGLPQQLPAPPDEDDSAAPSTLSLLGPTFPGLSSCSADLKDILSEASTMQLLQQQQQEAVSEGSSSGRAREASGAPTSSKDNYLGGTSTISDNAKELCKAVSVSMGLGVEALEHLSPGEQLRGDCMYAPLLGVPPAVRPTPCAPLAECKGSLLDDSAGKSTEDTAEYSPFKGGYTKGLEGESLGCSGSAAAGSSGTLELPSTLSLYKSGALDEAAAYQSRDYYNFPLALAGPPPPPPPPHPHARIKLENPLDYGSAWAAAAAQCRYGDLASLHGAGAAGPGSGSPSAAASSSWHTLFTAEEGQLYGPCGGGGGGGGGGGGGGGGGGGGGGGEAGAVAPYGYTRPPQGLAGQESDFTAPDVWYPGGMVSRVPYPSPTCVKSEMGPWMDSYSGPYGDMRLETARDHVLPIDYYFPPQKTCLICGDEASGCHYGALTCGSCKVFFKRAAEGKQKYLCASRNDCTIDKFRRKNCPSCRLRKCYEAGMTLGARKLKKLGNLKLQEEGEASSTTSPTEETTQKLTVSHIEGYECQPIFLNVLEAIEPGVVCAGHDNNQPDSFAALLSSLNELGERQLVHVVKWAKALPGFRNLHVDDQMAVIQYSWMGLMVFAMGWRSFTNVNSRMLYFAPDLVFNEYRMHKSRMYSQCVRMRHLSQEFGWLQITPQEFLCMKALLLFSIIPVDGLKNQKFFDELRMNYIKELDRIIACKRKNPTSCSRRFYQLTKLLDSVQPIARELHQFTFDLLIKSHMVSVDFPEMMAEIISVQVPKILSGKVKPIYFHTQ

[2] = target: T2, Glucocorticoid receptor (Homo sapiens) (UniProt P04150); test: Inhibition of dexamethasone-induced transcriptional activity of human GR expressed in human PC3 cells harboring pGL3-ARR3tk-NLuc at 2 uM after 24 hrs by luciferase reporter gene assay; type: cell-based
T2 sequence (whole entry): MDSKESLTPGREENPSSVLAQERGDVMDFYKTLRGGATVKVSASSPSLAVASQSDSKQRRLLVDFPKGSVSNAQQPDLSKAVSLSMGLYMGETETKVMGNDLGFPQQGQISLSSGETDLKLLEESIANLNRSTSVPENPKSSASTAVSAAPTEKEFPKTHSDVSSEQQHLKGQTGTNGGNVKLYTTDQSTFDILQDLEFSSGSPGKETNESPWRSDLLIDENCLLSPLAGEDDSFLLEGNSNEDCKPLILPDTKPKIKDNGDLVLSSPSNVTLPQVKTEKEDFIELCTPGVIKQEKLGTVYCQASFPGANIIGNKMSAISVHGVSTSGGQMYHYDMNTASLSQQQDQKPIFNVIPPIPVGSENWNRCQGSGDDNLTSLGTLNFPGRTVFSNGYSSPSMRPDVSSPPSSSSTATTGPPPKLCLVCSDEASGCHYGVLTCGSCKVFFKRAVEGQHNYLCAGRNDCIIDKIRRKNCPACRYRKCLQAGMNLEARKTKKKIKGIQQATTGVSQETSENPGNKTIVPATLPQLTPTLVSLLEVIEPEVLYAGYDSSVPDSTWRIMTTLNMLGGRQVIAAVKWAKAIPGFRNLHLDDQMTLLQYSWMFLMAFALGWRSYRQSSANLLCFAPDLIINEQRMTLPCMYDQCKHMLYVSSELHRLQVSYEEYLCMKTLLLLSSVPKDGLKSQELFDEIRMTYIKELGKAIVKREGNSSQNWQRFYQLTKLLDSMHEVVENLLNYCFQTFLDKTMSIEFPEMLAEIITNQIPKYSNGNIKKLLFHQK

[3] = target: T3, Androgen receptor (Rattus norvegicus, UniProt P15207); test: Displacement of Fluormone-DHT from rat GST-tagged rat AR LBD expressed in insect cells after 4 hrs by fluorescence polarization assay
T3 sequence (P15207 whole entry): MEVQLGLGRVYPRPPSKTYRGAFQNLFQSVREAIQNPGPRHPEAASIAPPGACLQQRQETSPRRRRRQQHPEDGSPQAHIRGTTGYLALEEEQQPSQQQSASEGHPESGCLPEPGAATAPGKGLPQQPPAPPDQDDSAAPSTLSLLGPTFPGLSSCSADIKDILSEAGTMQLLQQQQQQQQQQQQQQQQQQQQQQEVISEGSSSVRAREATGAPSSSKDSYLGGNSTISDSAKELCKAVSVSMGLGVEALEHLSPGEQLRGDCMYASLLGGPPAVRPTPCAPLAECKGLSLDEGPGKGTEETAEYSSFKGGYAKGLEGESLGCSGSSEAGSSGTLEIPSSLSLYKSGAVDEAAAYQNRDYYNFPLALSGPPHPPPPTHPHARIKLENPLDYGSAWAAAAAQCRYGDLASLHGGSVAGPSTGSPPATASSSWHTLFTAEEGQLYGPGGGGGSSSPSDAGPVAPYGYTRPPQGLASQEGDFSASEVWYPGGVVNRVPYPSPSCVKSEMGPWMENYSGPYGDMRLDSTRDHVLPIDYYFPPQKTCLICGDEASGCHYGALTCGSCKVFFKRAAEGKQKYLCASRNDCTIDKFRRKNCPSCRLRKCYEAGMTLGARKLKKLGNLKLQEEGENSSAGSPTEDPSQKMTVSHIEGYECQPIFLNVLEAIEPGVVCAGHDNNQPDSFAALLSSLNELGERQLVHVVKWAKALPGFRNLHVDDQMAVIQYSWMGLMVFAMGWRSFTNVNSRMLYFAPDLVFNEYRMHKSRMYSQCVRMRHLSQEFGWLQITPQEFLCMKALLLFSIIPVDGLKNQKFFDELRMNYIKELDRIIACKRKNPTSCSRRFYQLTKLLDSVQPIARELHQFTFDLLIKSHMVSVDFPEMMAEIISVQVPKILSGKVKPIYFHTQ

[4] = target: T4, Androgen receptor (Homo sapiens, UniProt P10275); test: Inhibition of full length AR transcriptional activity in human LNCAP cells harboring AR2PB-eGFP construct assessed as reduction in R1881-induced secreted PSA level after 72 hrs by fluorescence assay; type: cell-based
T4 sequence (P10275 whole entry): T1 sequence (whole entry)

[5] = target: Estrogen receptor (Homo sapiens) (UniProt Q92731+P03372); test: Inhibition of estradiol-induced transcriptional activity of human ER expressed in human PC3 cells harboring pGL3-ERE-NLuc at 2 uM after 24 hrs by luciferase reporter gene assay; type: cell-based
[6] = target: Androgen receptor (Homo sapiens, UniProt P10275); test: Inhibition of R1881-induced transcriptional activity of human AR V7 truncated mutant expressed in human PC3 cells harboring pGL3-ARR3tk-NLuc after 24 hrs by luciferase reporter gene assay; type: cell-based
[7] = target: Tubulin; test: Inhibition of tubulin polymerization (unknown origin); type: protein-complex assay, Homo sapiens
[8] = target: T5, Progesterone receptor (Homo sapiens) (UniProt P06401); test: Inhibition of progesterone-induced transcriptional activity of human PR expressed in human PC3 cells harboring pGL3-ARR3tk-NLuc at 2 uM after 24 hrs by luciferase reporter gene assay; type: cell-based
T5 sequence (whole entry): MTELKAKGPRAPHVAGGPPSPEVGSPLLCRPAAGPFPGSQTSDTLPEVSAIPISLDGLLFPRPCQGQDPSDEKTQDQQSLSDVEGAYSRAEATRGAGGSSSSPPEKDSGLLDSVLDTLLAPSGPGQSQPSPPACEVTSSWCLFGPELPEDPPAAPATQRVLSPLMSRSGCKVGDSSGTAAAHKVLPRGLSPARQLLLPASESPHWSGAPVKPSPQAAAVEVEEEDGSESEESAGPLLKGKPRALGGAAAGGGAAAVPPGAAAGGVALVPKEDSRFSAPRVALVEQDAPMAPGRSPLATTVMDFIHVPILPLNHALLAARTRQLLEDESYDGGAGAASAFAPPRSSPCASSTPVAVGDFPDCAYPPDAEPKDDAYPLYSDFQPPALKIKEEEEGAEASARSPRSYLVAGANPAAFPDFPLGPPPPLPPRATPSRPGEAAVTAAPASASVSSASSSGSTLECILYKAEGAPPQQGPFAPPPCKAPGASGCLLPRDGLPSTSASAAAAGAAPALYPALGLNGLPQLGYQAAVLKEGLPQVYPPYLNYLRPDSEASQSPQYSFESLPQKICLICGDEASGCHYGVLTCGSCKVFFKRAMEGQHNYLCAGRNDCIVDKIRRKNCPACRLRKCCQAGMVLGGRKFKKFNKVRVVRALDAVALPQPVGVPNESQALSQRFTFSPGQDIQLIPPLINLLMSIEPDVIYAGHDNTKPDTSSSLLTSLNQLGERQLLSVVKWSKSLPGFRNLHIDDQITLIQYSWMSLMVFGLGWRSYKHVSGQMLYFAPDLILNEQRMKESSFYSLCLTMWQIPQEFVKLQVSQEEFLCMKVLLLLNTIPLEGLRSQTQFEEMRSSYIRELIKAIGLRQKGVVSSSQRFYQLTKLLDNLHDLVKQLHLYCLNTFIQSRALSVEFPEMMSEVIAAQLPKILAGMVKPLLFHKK

[9] = system: PC-3; test: Cytotoxicity against human PC3 cells assessed as growth inhibition after 72 hrs by presto-blue dye based assay; type: cell-based; settings: pc-3, 72 h
[10] = system: CWR22R; test: Cytotoxicity against human 22Rv1 cells assessed as growth inhibition at 0.5 uM after 72 hrs by presto-blue dye based assay; type: functional, cell-based
[11] = target: T1, Androgen receptor (Homo sapiens); settings: at 10 µM
Description: Antagonist activity at full length YFP-tagged AR (unknown origin) expressed in HEK293T cells assessed as inhibition of R1881-induced nuclear translocation at 10 uM after 4 hrs by DAPI staining based confocal microscopic method

[12] = target: T4, Androgen receptor; test: Inhibition of R1881-induced full length AR transcriptional activity in human LNCAP cells harboring AR2PB-eGFP construct after 72 hrs by fluorescence assay; type: cell-based
[13] = target: T1, Androgen receptor (Homo sapiens); test: Induction of full length AR degradation in human LNCAP cells assessed as reduction in AR mRNA level at 2 to 20 uM after […] by RT-PCR method; type: cell-based
[14] = target: T1, Androgen receptor (Homo sapiens); test: Inhibition of R1881-induced transcriptional activity of human AR expressed in human PC3 cells harboring pGL3-ARR3tk-NLuc at 2 uM after 24 hrs by luciferase reporter gene assay; type: cell-based
[15] = system: LNCaP; test: Induction of apoptosis in human LNCAP cells assessed as PARP cleavage at 2 to 20 uM after 5 hrs by Western blot analysis; type: functional, cell-based
[16] = system: CWR22R; test: Cytotoxicity against human 22Rv1 cells assessed as growth inhibition at 5 uM after 72 hrs by presto-blue dye based assay; type: functional, cell-based
[17] = system: CWR22R; test: Cytotoxicity against human 22Rv1 cells assessed as growth inhibition at lower concentration after 72 hrs by presto-blue dye based assay; type: functional, cell-based
[18] = system: PC-3; test: Cytotoxicity against human PC3 cells harboring pGL3-ARR3tk-NLu/human AR V7 truncated mutant after 72 hrs by MTS assay; type: cell-based; settings: pc-3, 72 h
[19] = system: LNCaP; test: Cytotoxicity against human LNCAP cells harboring AR2PB-eGFP construct after 72 hrs by MTS assay; type: cell-based

Row | Structure (SMILES) | Activity [1] | inhibition [2] | IC50 [3] [µM] | IC50 [4] [µM] | inhibition [5] | IC50 [6] [µM] | IC50 [7] [µM] | inhibition [8] | inhibition [11] | IC50 [12] [µM] | Activity [13] | inhibition [14] | growth inhibition (GI) [9] | growth inhibition (GI) [10] | Activity [15] | growth inhibition (GI) [16] | growth inhibition (GI) [17] | Activity [18] | Activity [19]
1 | COc1ccc(C=C2c3cccc(Cl)c3C(=O)c3c(Cl)cccc32)c(OC)c1O | inactive | – | – | 0.17 | – | 10 | – | – | inactive | 1.14 | – | – | – | – | inactive | – | Active | – | –
2 | COc1ccc(C=C2c3cccc(Cl)c3C(=O)c3c(Cl)cccc32)cc1O | inactive | – | – | 0.34 | – | 10 | – | – | inactive | 1.89 to 6 | – | – | – | – | inactive | – | Active | – | –
3 | O=C1c2c(Cl)cccc2C(=Cc2ccccc2O)c2cccc(Cl)c21 | – | – | – | – | – | – | – | – | – | – | – | – | – | – | – | – | – | Toxic | Toxic
4 | COc1cc(C=C2c3cccc(Cl)c3C(=O)c3c(Cl)cccc32)cc(OC)c1O | – | – | – | – | – | > 10 | – | – | – | > 10 | – | – | – | – | – | – | – | – | –

The next lines start with results.

Row | Activity [1] | inhibition [2] | IC50 [3] [µM] | IC50 [4] [µM] | inhibition [5] | IC50 [6] [µM] | IC50 [7] [µM] | inhibition [8] | inhibition [11] | IC50 [12] [µM] | Activity [13] | inhibition [14] | Structure (SMILES) | growth inhibition (GI) [9] | growth inhibition (GI) [10] | Activity [15] | growth inhibition (GI) [16] | growth inhibition (GI) [17] | Activity [18] | Activity [19]
5 | Active | inactive | 0.625 to 2.5 | 0.35 | inactive | < 10 | 10 | inactive | inactive | 0.316 | inactive | Active | O=C1c2ccccc2C(=Cc2cccc(O)c2)c2ccccc21 | Toxic | Active | inactive | – | – | – | –
6 | Active | – | – | 0.73 | – | 10 | – | – | inactive | 1.48 | – | – | COc1cccc(C=C2c3cccc(Cl)c3C(=O)c3c(Cl)cccc32)c1O | – | – | inactive | Active | – | – | –
7 | Active | inactive | – | 0.1 | inactive | < 10 | – | inactive | inactive | 0.232 | inactive | Active | COc1ccc(C=C2c3ccccc3C(=O)c3ccccc32)c(O)c1 | – | – | inactive | – | Active | – | –
